US20090221441A1, “THREE-DIMENSIONAL CELLULAR ARRAY CHIP AND PLATFORM FOR TOXICOLOGY ASSAYS” (Rensselaer Polytechnic Institute, priority 2005, published 2009)
Entries after “also recorded” stand apart in the source; their conditions may differ.

Columns and labels:
[1] = Cytotoxicity of compounds and their P450-generated metabolites, Hep3B DataChip stamped with MetaChip; conditions: human
Description: (§1) The cytotoxicity of drugs (or drug metabolites) was determined by staining the slide containing the cells with a Live/Dead test kit (Molecular Probes) that produces a green fluorescent response from living cells. At the end of the 3-day culture period post stamping, the three-dimensional cell chip (DataChip) was rinsed three times in PBS for 5 min each. One mL of a dye solution containing 0.5 μM calcein AM was applied to each three-dimensional cell chip using a glass slide with 1 mm thick perimeter gasket acting as a barrier to prevent loss of the dye solution.
(§2) Following incubation for 50 minutes at room temperature, excess dye in the collagen-gel drops was removed by incubating the slides in a petri dish containing 16 mL of PBS for 30 min on a gyratory shaker at 60 rpm. The three-dimensional cell chip was dried thoroughly with nitrogen. The three-dimensional cell chip was scanned with the GenePix® Professional 4200A scanner equipped with blue laser and standard blue filter to determine the green fluorescent intensity and was quantified from the scanning image using GenePix Pro 6.0 (Molecular Devices Co.).
(§3) Percent live cells=(FReaction/FMax)×100
(§4) where FReaction is the green fluorescence intensity of the reaction spot and FMax is the green fluorescence intensity of untreated fully viable cells.
(§5) For efficient stamping, MTMOS-coated glass slides were prepared to contain a sol-gel barrier on the periphery of the slides.
(§6) To this end […] of methyltrimethoxysilane (MTMOS) sol was prepared by mixing 2 mL of MTMOS with 1 mL of HCl (10 mM) and sonicated for 10 min. The sol was spotted on the periphery of the MTMOS-coated slide and then the slide was baked in an oven for 30 min at 120° C.
(§7) The MetaChip was stored at −80° C. for 1 day prior to use. Cytotoxicity studies were performed by spotting 20 nL of test compound in distilled water (0-2 mM) onto the MetaChip spots and partially dried.
(§8) This was followed by stamping of the three-dimensional cell chip (DataChip) containing either MCF7 or Hep3B cells onto the MetaChip.
(§9) To this end, a MetaChip consisting of 20×54 alginate spots was prepared; each spot containing a single human P450 isoform (CYP1A2, CYP2D6, or CYP3A4), a mixture of the three isoforms, or no P450 as a test compound only control. Addition of test compounds was carried out by overlay spotting of solutions of these compounds onto the MetaChip, which was then stamped on top of the DataChip.
(§10) Using three DataChips in combination with three MetaChips, IC50 values for 27 compounds and their P450-generated metabolites against human Hep3B cells were determined. […] The three P450 isoforms were used along with an equimolar mixture of the three isoforms and a test compound only control without P450. The test compounds were added to the MetaChip, which was then stamped onto the DataChip and incubated for 6 h. This was followed by removing the DataChip, rinsing with growth medium, incubating in media for 3 days, and then stained for cell viability.

[2] = test system: human Hep3B cells; experiment: in vitro
Description: as §1, §2, §3, §4, §5, §6, §7, §8, §9, §10

[3] = P450 activity determination with blue fluorogenic substrates in 384-well plate; assay type: biochemical, human
Description: To assess the intrinsic reactivity of P450s in alginate matrices, reactions were performed in wells of a 384-well plate. P450-containing alginate sol was prepared by dispensing 24 μL of P450 baculosomes (1 nmol P450/mL), 36 μL of distilled water, and 60 μL of alginate (2%) in distilled water. Five microliters of this solution were spotted onto 5 μL of the dried PLL-barium spot in a 384-well. Followed by storage of the P450-alginate gel drops at −80° C. for 1 day, 25 μL of blue fluorogenic substrates (BOMCC for CYP3A4 and EOMCC for CYP1A2 and CYP2D6) containing 250 μM NADP^+ and its regeneration system (8 mM glucose-6-phosphate and 1 U/mL glucose-6-phosphate dehydrogenase) in 50 mM potassium phosphate buffer (pH 8) were dispensed onto the thawed P450-alginate gel drop.
As a control, soluble P450 without alginate was also used. The blue fluorescent 7-hydroxycoumarin released by P450-catalyzed oxidation of BOMCC or EOMCC was monitored as a function of time using a BioAssay Reader HTS 7000 Plus (Perkin Elmer, Norwalk, Conn.) at an excitation wavelength of 430 nm and emission wavelength of 497 nm.

[4] = IC50, CYP1A2, Hep3B DataChip, MetaChip spots with CYP1A2
[5] = IC50, CYP2D6, Hep3B DataChip, MetaChip spots with CYP2D6
[6] = IC50, CYP3A4, Hep3B DataChip, MetaChip spots with CYP3A4
[7] = IC50, Mixture, Hep3B DataChip, equimolar mixture of CYP1A2, CYP2D6, CYP3A4
[8] = IC50, No P450, Hep3B DataChip, test compound only control without P450
[9] = Soluble enzyme (control, in solution)
[10] = Hep3B cells, compared with no P450

Row | Molecule | IC50 at 6 h [1, 4] | IC50 at 6 h [1, 5] | IC50 at 6 h [1, 6] | IC50 at 6 h [1, 7] | IC50 at 6 h [1, 8] | Activation or deactivation of the toxic response by CYP1A2 [2] | Activation or deactivation of the toxic response by CYP2D6 [2] | other results
1 | Cl[C@H]1[C@H](Cl)[C@@H](Cl)[C@@H](Cl)[C@H](Cl)[C@H]1Cl [Lindane] | 2730 ± 1080 µM | 5150 ± 1960 µM | 523 ± 133 µM | > 1000 µM | 394 ± 132 µM | moderately to weakly deactivated | deactivating lindane (strongly) | Activation or deactivation of the toxic response by the mixture of the three P450 isoforms [2]: greater deactivation in the mixture than with any of the three individual isoforms
2 | O=c1[nH]c(=O)n(C2CCCO2)cc1F (stereo not drawn) [Tegafur, 5-fluoro-1-(tetrahydro-2-furfuryl)-uracil] | > 1000 µM | > 1000 µM | 54800 ± 21400 µM | > 1000 µM | > 1000 µM |  |  | 
3 | CN(Cc1cnc2nc(N)nc(N)c2n1)c1ccc(C(=O)N[C@@H](CCC(=O)O)C(=O)O)cc1 [Methotrexate] | 2.79 ± 0.73 µM | 38.3 ± 12.1 µM | 10.9 ± 2.76 µM | 8 ± 2.97 µM | 2.41 ± 0.55 µM |  | deactivating | Activation or deactivation of the toxic response by CYP3A4 [2]: deactivated
4 | CC(=O)Oc1ccccc1C(=O)O [Acetylsalicylic Acid] | > 1000 µM | > 1000 µM | > 1000 µM | > 1000 µM | > 1000 µM |  |  | 
5 | CN(C)CCC=C1c2ccccc2CCc2ccccc21 [Amitriptyline] | 75 ± 14.2 µM | 55.9 ± 10.1 µM | 63.4 ± 12.1 µM | 75.6 ± 9.89 µM | 31.7 ± 1.98 µM | moderately to weakly deactivated |  | 
6 | CC(=O)CC(c1ccccc1)c1c(O)c2ccccc2oc1=O (stereo not drawn) [Warfarin] |  |  |  |  |  |  |  | IC50 at 6 h ([1]; IC50, CYP1A2): > 1000 µM; IC50 at 6 h ([1]; IC50, CYP2D6): > 1000 µM; IC50 at 6 h ([1]; IC50, CYP3A4): > 1000 µM; IC50 at 6 h ([1]; IC50, Mixture): > 1000 µM; IC50 at 6 h ([1]; IC50, No P450): > 1000 µM
7 | Oc1c(Cl)c(Cl)c(Cl)c(Cl)c1Cl [Pentachlorophenol] |  |  |  |  |  |  |  | IC50 ([1]; IC50, CYP1A2): > 1000 µM; IC50 ([1]; IC50, CYP2D6): > 1000 µM; IC50 ([1]; IC50, CYP3A4): > 1000 µM; IC50 ([1]; IC50, Mixture): 489 ± 272 µM; IC50 ([1]; IC50, No P450): > 1000 µM
8 | Cn1c(=O)c2[nH]cnc2n(C)c1=O [Theophylline] | 239 ± 56.4 µM | 119 ± 26.3 µM | 36.9 ± 11.2 µM | 84.3 ± 22.1 µM | 38.4 ± 8.92 µM | moderately to weakly deactivated | deactivating | 
9 | CN1CCCC1c1cccnc1 (stereo not drawn) [Nicotine] |  |  |  |  |  | moderately to weakly deactivated | deactivating | IC50 ([1]; IC50, CYP1A2): 90.8 ± 20.3 µM; IC50 ([1]; IC50, CYP2D6): 158 ± 39.5 µM; IC50 ([1]; IC50, CYP3A4): 647 ± 191 µM; IC50 ([1]; IC50, Mixture): 377 ± 147 µM; IC50 ([1]; IC50, No P450): 29.5 ± 4.12 µM; Activation or deactivation of the toxic response by CYP3A4 [2]: deactivated chloroquine, quinidine, nicotine (strongly)
10 | CYP3A4: human P450 isoform (baculosomes), soluble or encapsulated in alginate; assayed with BOMCC |  |  |  |  |  |  |  | Km ([3]; In Alginate): 35.4 ± 8.98 µM; kcat ([3]; In Alginate): 0.0775 ± 0.0145 s⁻¹; Km [3, 9]: 33.7 ± 2.94 µM; kcat [3, 9]: 0.125 ± 0.008 s⁻¹
11 | C=C[C@H]1C[N@@]2CC[C@H]1C[C@@H]2[C@@H](O)c1ccnc2ccc(OC)cc12 [Quinidine] | 92.9 ± 7.5 µM | 106 ± 9.05 µM | 126 ± 10.2 µM | 246 ± 39.4 µM | 19.2 ± 2.36 µM |  |  | Activation or deactivation of the toxic response by the mixture of the three P450 isoforms ([2]; Hep3B cells): greater deactivation in the mixture than with any of the three individual isoforms; Activation or deactivation of the toxic response by CYP1A2 [2, 10]: moderately to weakly deactivated; Activation or deactivation of the toxic response by CYP2D6 [2, 10]: deactivating; Activation or deactivation of the toxic response by CYP3A4 [2, 10]: deactivated
12 | CC(=O)Nc1ccc(O)cc1 [Acetaminophen, acetaminophen] | 2590 ± 960 µM | > 1000 µM | 2770 ± 1240 µM | > 1000 µM | > 1000 µM | strongly activated |  | Activation or deactivation of the toxic response by CYP3A4 [2]: strongly activated; IC30 [2]: (IC30: 0.50 ± 0.02)
13 | C[n+]1ccc(-c2cc[n+](C)cc2)cc1 [Paraquat, paraquat] |  |  |  |  |  |  |  | IC50 [1, 4]: 5.06 ± 0.29 µM; IC50 [1, 5]: 20.8 ± 1.8 µM; IC50 [1, 6]: 52 ± 9.12 µM; IC50 [1, 7]: 44.2 ± 6.05 µM; IC50 [1, 8]: 79.8 ± 12.7 µM; Activation or deactivation of the toxic response by the mixture of the three P450 isoforms ([2]; Hep3B cells): activation; Activation or deactivation of the toxic response by CYP1A2 [2, 10]: activation; Activation or deactivation of the toxic response by CYP2D6 [2, 10]: activation; also recorded: activated
14 | CC(=O)O[C@H]1C(=O)[C@@]2(C)[C@H]([C@H](OC(=O)c3ccccc3)[C@]3(O)C[C@H](OC(=O)[C@H](O)[C@@H](NC(=O)c4ccccc4)c4ccccc4)C(C)=C1C3(C)C)[C@]1(OC(C)=O)CO[C@@H]1C[C@@H]2O [Paclitaxel, paclitaxel] |  |  |  |  |  |  | deactivating | 
15 | C[C@H]1O[C@@H](O[C@H]2[C@@H](O)C[C@H](O[C@H]3[C@@H](O)C[C@H](O[C@H]4CC[C@@]5(C)[C@H](CC[C@@H]6[C@@H]5C[C@@H](O)[C@]5(C)[C@@H](C7=CC(=O)OC7)CC[C@]65O)C4)O[C@@H]3C)O[C@@H]2C)C[C@H](O)[C@@H]1O [Digoxin] | 1.29 ± 0.09 µM | 0.43 ± 0.03 µM | 1.37 ± 0.05 µM | 0.59 ± 0.03 µM | 0.8 ± 0.09 µM |  |  | IC50 at 6 h ([1]; IC50 values, Hep3B DataChip): < 1 µM
16 | CCN(CC)CCCC(C)Nc1ccnc2cc(Cl)ccc12 (stereo not drawn) [Chloroquine] | 184 ± 19.9 µM | 112 ± 22.3 µM | 79.7 ± 12.8 µM | 94.5 ± 14.1 µM | 189 ± 25.2 µM |  |  | Activation or deactivation of the toxic response by CYP3A4 [2, 10]: deactivated
17 | Nc1ccn([C@@H]2O[C@H](CO)[C@@H](O)[C@@H]2O)c(=O)n1 [Cytarabine] |  |  |  |  |  | moderately to weakly deactivated | deactivating | 
18 | O=P1(N(CCCl)CCCl)NCCCO1 (stereo not drawn) [Cyclophosphamide, cyclophosphamide] | > 1000 µM | > 1000 µM | 2110 ± 600 µM | > 1000 µM | > 1000 µM |  |  | Activation or deactivation of the toxic response by CYP3A4 [2, 10]: strongly activated
19 | NNC(=O)c1ccncc1 [Isoniazid] | 353 ± 89.9 µM | > 1000 µM | > 1000 µM | > 1000 µM | > 1000 µM |  |  | 
